In ChEMBL document CHEMBL1697731, “Cheminformatics analysis of assertions mined from literature that describe drug-induced liver injury in different species” (Chem Res Toxicol, 2010):

Legend:
Hepatotoxicity [1] = experiment: Literature-mined compound from Fourches et al multi-species drug-induced liver injury (DILI) dataset, effect in non-rodents
Hepatotoxicity [2] = experiment: Literature-mined compound from Fourches et al multi-species drug-induced liver injury (DILI) dataset, effect in humans; details: human
Hepatotoxicity [3] = experiment: Literature-mined compound from Fourches et al multi-species drug-induced liver injury (DILI) dataset, effect in rodents; details: rodentia

Row | Structure (SMILES) | Hepatotoxicity (Hepatotoxicity [1]) | Hepatotoxicity (Hepatotoxicity [2]) | Hepatotoxicity (Hepatotoxicity [3]) | Hepatotoxicity (Hepatotoxicity [1]; Liver) | Hepatotoxicity (Hepatotoxicity [2]; Liver) | Hepatotoxicity (Hepatotoxicity [3]; Liver)
1 | CC(=O)O[C@@]12CO[C@@H]1C[C@H](O)[C@@]1(C)C(=O)[C@H](O)C3=C(C)[C@@H](OC(=O)[C@H](O)[C@@H](NC(=O)OC(C)(C)C)c4ccccc4)C[C@@](O)([C@@H](OC(=O)c4ccccc4)[C@H]21)C3(C)C.O.O.O [DOCETAXEL] | no drug-induced liver injury reported | drug-induced liver injury reported | drug-induced liver injury reported | – | – | –
2 | CC/C=C\C/C=C\C/C=C\C/C=C\C/C=C\C/C=C\CCC(=O)O [DOCONEXENT] | no drug-induced liver injury reported | drug-induced liver injury reported | drug-induced liver injury reported | – | – | –
3 | NCCc1ccc(O)c(O)c1 [DOPAMINE] | – | – | – | drug-induced liver injury reported | drug-induced liver injury reported | drug-induced liver injury reported
4 | CN(C)CC/C=C1\c2ccccc2CSc2ccccc21 [DOTHIEPIN] | no drug-induced liver injury reported | drug-induced liver injury reported | no drug-induced liver injury reported | – | – | –
5 | CN(C)CCC=C1c2ccccc2COc2ccccc21 [DOXEPIN] | no drug-induced liver injury reported | drug-induced liver injury reported | no drug-induced liver injury reported | – | – | –
6 | C[C@H]1O[C@@H](n2cc(F)c(=O)[nH]c2=O)[C@H](O)[C@@H]1O [DOXIFLURIDINE] | no drug-induced liver injury reported | drug-induced liver injury reported | drug-induced liver injury reported | – | – | –
7 | COc1cccc2c1C(=O)c1c(O)c3c(c(O)c1C2=O)C[C@@](O)(C(=O)CO)C[C@@H]3O[C@H]1C[C@H](N)[C@H](O)[C@H](C)O1.Cl [DOXORUBICIN HYDROCHLORIDE] | no drug-induced liver injury reported | drug-induced liver injury reported | no drug-induced liver injury reported | – | – | –
8 | COc1cccc2c1C(=O)c1c(O)c3c(c(O)c1C2=O)C[C@@](O)(C(=O)CO)C[C@@H]3O[C@H]1C[C@H](N)[C@H](O)[C@H](C)O1 [DOXORUBICIN] | drug-induced liver injury reported | drug-induced liver injury reported | drug-induced liver injury reported | – | – | –
9 | C[C@H]1c2cccc(O)c2C(=O)C2=C(O)[C@]3(O)C(=O)C(C(N)=O)=C(O)[C@@H](N(C)C)[C@@H]3[C@@H](O)[C@@H]21.O [DOXYCYCLINE] | drug-induced liver injury reported | drug-induced liver injury reported | drug-induced liver injury reported | – | – | –
10 | CC/C(=C(/c1ccc(OCCN(C)C)cc1)c1cccc(O)c1)c1ccccc1 [DROLOXIFENE] | no drug-induced liver injury reported | no drug-induced liver injury reported | drug-induced liver injury reported | – | – | –
11 | CCCCCc1cc(O)c2c(c1)OC(C)(C)[C@@H]1CCC(C)=C[C@@H]21 [DRONABINOL] | no drug-induced liver injury reported | drug-induced liver injury reported | drug-induced liver injury reported | – | – | –
12 | CNCC[C@H](Oc1cccc2ccccc12)c1cccs1 [DULOXETINE] | – | – | – | no drug-induced liver injury reported | drug-induced liver injury reported | no drug-induced liver injury reported
13 | CC(=O)[C@H]1CC[C@H]2[C@@H]3C=CC4=CC(=O)CC[C@@]4(C)[C@@H]3CC[C@]12C [DYDROGESTERONE] | no drug-induced liver injury reported | drug-induced liver injury reported | drug-induced liver injury reported | – | – | –
14 | Clc1ccc(COC(Cn2ccnc2)c2ccc(Cl)cc2Cl)cc1 (configuration not stated) [ECONAZOLE] | no drug-induced liver injury reported | no drug-induced liver injury reported | drug-induced liver injury reported | – | – | –
